Assay results from patent publication US8053465B2, “Bicycloester derivative” (Kyorin Pharmaceutical Co., Ltd., priority 2004, dated 2011).

Columns and labels:
[1] = biological target: T1, plasma dipeptidylpeptidase IV (Homo sapiens, UniProt P27487); assay: In vitro dipeptidylpeptidase IV inhibitory activity (plasma, H-Gly-Pro-AMC fluorometry); assay type: biochemical; settings: plasma diluted 8-fold, H-Gly-Pro-AMC.HBr substrate, room temperature 20 minutes
T1 construct: 20 μL of plasma diluted 8-fold with saline in a well of a 96-well flat bottom plate; from tissue
T1 sequence (P27487 whole entry): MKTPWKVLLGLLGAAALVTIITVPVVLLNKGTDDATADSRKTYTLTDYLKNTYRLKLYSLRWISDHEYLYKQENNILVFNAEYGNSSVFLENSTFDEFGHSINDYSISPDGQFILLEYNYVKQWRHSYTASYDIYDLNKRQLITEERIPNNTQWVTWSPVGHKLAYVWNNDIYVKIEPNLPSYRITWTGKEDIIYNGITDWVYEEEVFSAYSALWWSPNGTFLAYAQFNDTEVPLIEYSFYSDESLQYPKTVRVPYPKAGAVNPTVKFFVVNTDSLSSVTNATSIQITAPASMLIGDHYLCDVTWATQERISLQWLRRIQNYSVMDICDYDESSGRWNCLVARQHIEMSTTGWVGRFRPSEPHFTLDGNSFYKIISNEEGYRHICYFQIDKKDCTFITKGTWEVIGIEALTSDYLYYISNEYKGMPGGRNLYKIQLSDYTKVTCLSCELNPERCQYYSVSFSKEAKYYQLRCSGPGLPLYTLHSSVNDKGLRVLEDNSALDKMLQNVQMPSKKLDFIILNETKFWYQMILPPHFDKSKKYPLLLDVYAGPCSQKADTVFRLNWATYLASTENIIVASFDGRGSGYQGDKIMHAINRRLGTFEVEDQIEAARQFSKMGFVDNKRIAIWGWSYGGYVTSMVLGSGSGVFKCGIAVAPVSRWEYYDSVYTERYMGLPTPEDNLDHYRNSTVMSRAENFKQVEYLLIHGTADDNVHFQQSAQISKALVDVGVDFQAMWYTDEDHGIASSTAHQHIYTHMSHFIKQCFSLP
Experimental: The concentration of free 7-amino-4-methyl-coumarin (AMC) generated by hydrolysis of H-Gly-Pro-AMC.HBr substrate by plasma dipeptidylpeptidase IV was determined by fluorometry.
A 20 μL of buffer (25 mmol/L hepes, 140 mmol/L sodium chloride, 1% bovine serum albumin, 80 mmol/L magnesium chloride hexahydrate, pH 7.4) containing each compound was added to 20 μL of plasma diluted 8-fold with saline in a well of a 96-well flat bottom plate. The plate was left at room temperature for 5 minutes and 10 μL of 0.1 mmol/L H-Gly-Pro-AMC.HBr solution was added to each well to initiate the reaction. […] Using a fluorescent plate reader, the free AMC concentration was determined by exciting the samples at 355 nm and measuring the fluorescence intensity at 460 nm.

[2] = biological target: T2, plasma dipeptidylpeptidase IV (Mus musculus, UniProt P28843); assay: Inhibition of plasma dipeptidylpeptidase IV activity in mice by oral administration; assay type: in vivo; settings: male ICR mice, 0.1 mg/mL suspension at 10 mL/kg, 30 minutes after administration
T2 construct: The blood samples were centrifuged at 6000 rpm for 2 minutes to separate plasma; tissue Charles River Laboratories Japan; host or cells: plasma of male ICR mice
T2 sequence (P28843 whole entry): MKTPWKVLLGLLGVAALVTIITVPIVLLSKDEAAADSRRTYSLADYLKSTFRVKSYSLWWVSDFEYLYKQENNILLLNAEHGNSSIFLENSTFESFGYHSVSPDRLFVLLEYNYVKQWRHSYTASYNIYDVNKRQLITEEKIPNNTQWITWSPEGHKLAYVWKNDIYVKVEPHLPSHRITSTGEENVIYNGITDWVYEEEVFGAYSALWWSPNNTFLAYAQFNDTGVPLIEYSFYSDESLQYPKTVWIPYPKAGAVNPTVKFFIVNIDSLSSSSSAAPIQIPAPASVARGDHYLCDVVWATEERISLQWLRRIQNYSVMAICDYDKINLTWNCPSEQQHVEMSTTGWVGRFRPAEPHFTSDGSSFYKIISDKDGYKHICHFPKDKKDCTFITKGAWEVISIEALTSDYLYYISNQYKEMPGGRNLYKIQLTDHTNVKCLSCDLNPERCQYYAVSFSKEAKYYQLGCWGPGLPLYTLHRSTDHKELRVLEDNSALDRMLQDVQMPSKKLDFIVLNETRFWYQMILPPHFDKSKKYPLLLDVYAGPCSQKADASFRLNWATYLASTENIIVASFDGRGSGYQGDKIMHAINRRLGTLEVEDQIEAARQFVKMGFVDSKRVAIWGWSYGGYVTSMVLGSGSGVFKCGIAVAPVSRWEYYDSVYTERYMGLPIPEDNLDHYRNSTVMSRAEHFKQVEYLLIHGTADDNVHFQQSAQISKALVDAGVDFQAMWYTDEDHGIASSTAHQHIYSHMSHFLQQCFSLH
Experimental: Each compound was suspended in 0.3% sodium carboxymethylcellulose to a concentration of 0.1 mg/mL. The preparation was orally administered to 8-week old male ICR mice (Charles River Laboratories Japan) at a dose of 10 mL/kg. Using an EDTA 2K-treated capillary tube, blood samples were collected from the tail vein before administration and 30 minutes after administration. The blood samples were centrifuged at 6000 rpm for 2 minutes to separate plasma. […] The inhibition was determined from the decrease in the enzymatic activity from the initial activity (% inhibition={(activity before administration−activity after administration)/(activity before administration)}×100).

Compound | IC50 [1] [nM] | inhibition at 100 µg/mL (stock) [2] [%]
CC(C)COC(=O)C12CCC(NCC(=O)N3C[C@@H](F)C[C@H]3C#N)(CC1)CC2 [Example 11, (2S,4S)-4-fluoro-1-[[N-[4-(2-methylpropyl)oxycarbonylbicyclo[2.2.2]oct-1-yl]amino]acetyl]pyrrolidine-2-carbonitrile] | 0.13 | 93
CCOC(=O)C12CCC(NCC(=O)N3C[C@@H](F)C[C@H]3C#N)(CC1)CC2 [Example 1, (2S,4S)-1-[[N-(4-ethoxycarbonylbicyclo[2.2.2]oct-1-yl)amino]acetyl]-4-fluoropyrrolidine-2-carbonitrile] | 0.25 | 100
N#C[C@@H]1C[C@H](F)CN1C(=O)CNC12CCC(C(=O)OCc3ccc(C(F)(F)F)cc3)(CC1)CC2 [Example 10, (2S,4S)-4-fluoro-1-[[N-[4-(4-trifluoromethylbenzyl)oxycarbonylbicyclo[2.2.2]oct-1-yl]amino]acetyl]pyrrolidine-2-carbonitrile] | 0.23 | –
N#C[C@@H]1C[C@H](F)CN1C(=O)CNC12CCC(C(=O)OCC3CC3)(CC1)CC2 [Example 9, (2S,4S)-1-[[N-(4-cyclopropylmethyloxycarbonylbicyclo[2.2.2]oct-1-yl)amino]acetyl]-4-fluoropyrrolidine-2-carbonitrile] | 0.48 | 94
